Several values for one entry are separate records, joined by “and”; a condition that tells them apart may be missing. Equal entries are not always repeated.
Target: T1, TMEM16A (Homo sapiens, UniProt Q5XXA6, DEL476-501)
T1 construct: expressed in transfected cells
T1 sequence (Q5XXA6 with tags, fused parts or gaps isoform Q5XXA6-5 DEL539-564): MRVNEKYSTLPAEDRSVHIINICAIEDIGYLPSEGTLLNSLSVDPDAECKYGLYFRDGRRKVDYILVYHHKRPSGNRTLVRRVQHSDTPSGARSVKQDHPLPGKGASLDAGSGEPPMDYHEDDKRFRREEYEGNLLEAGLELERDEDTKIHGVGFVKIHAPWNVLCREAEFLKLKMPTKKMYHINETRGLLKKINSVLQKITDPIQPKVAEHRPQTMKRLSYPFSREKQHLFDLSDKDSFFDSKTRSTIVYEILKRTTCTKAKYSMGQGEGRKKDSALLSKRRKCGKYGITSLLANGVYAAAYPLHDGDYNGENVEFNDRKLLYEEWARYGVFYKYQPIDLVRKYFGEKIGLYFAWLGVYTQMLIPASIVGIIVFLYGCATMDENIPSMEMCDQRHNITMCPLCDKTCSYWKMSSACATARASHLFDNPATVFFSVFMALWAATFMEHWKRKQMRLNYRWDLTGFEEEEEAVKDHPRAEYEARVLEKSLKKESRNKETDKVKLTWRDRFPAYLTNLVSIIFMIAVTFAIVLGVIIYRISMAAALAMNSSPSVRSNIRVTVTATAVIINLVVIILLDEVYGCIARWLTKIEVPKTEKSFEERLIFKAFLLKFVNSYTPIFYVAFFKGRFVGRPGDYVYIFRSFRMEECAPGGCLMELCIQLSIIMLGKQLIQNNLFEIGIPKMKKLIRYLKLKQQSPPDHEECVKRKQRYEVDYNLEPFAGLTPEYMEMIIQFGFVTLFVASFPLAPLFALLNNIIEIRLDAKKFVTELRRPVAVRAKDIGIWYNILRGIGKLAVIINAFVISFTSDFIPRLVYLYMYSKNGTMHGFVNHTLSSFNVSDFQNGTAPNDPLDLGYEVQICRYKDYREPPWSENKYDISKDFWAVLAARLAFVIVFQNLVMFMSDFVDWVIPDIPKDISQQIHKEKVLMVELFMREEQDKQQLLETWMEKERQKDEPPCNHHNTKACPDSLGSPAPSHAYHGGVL
Assay: Apical membrane current in TMEM16A-expressing FRT cells
Assay type: cell-based
Experimental: FRT cells were stably transfected with human TMEM16A (TMEM16A(abc), cDNA provided by Dr. Luis Galietta, Gaslini Institute, Genoa, Italy) and the halide sensor YFP-H148Q/1152L/F46L. Cells were plated in 96-well black-walled microplates (Corning Inc., Corning, N.Y.) at a density of 20,000 cells per well in Coon's modified F12 medium supplemented with 5% fetal calf serum, 2 mM L-glutamine, 100 U/mL penicillin and 100 μg/mL streptomycin. The human submandibular cell line A253 (ATCC HTB 41) was cultured in complete McCoy's 5A medium supplemented with 10% fetal bovine serum, 100 U/mL penicillin and 100 μg/mL streptomycin.
Snapwell inserts containing TMEM16A-expressing FRT, HBE, CF HBE or HTG cells were mounted in Ussing chambers (Physiologic Instruments, San Diego, Calif.). Amiloride, CFTRinh-172, UTP, ATP, T16Ainh-A01 and TMEM16A activators were added to the apical solution and an equal volume of vehicle was added at the same time to the basolateral solution. Symmetrical HCO3^−-buffered solutions were used for HBE, CF HBE and HTG cells. For FRT cells, the hemichambers were filled with a half-Cl^− solution (apical) and the HCO3^−-buffered solution (basolateral), and the basolateral membrane was permeabilized with 250 μg/mL amphotericin B, as described (Namkung et al. (2010), supra). Cells were bathed for a 10 min stabilization period and aerated with 95% O2/5% CO2 at 37° C. or room temperature. Apical membrane current (for FRT cells) and short-circuit current were measured using an EVC4000 Multi-Channel V/I Clamp (World Precision Instruments, Sarasota, Fla.) and recorded using PowerLab/8sp (AD Instruments, Castle Hill, Australia).
The current increase was sustained for >10 min (FIG. 2B, inset). […] Data are also shown for a second Fact compound (Fact9, see Table 1) in FIG. 9.

Row | inhibition of Eact- and Fact-induced Cl^− current (T16Ainh-A01 10 μM) | SMILES | TMEM16A current following 1 μM Eact (synergy) (1-3 μM Fact after 1 μM Eact) | TMEM16A activation alone (1-3 μM Fact alone) | EC50 (EC50 from concentration-activation data, apical membrane current) | maximal TMEM16A activation compared to ATP effect (apical membrane current) | Cl^− current (apical membrane current) (basolateral membrane permeabilized, Cl^− gradient, ATP 100 μM)
1 | – | O=C(Nc1ccc(Br)cc1)c1cccc(-n2cnnn2)c1 [Fact, N-(4-bromophenyl)-3-(1H-tetrazol-1-yl)benzamide] | greatly increased TMEM16A current | little TMEM16A activation | 3 to 6 µM and ~6 µM | maximal TMEM16A activation | large, concentration-dependent increases in Cl^− current
2 | inhibited | CCc1c(C)nc(SCC(=O)Nc2nc(-c3ccc(OC)cc3)cs2)[nH]c1=O [T16Ainh-A01, reference compound] | – | – | – | – | –
